Results on eight molecules are retold here after patent US20140186329A1, “POLYPHENOL ANALOGS TO TREAT ISCHEMIA” (priority 2011, published 2014).

Structures are written as SMILES. A value given as a limit tells only on which side of the number the result lay.

For assay [1], the system named is primary cortical neurons. Kind of assay: Trophic factor withdrawal. The settings on record: serum-containing medium, 10-10,000 nM, 2 days. It is filed as cell-based, rat. The method, then: FIG. 5 illustrates pharmacological effects of Baicalein on cultured cells. (A) Trophic factor withdrawal. Primary cortical neurons are prepared from 18-day-old rat embryos, and cultured at low cell density 1×10^6/35 mm dish, in serum containing medium with Baicalein (10-10,000 nM), and viability assayed 2 days later using a live-dead assay. (B) Excitotoxicity assay was done with E14 mouse primary cortical neuron cultures. After 11 days of culture, cells were exposed to 10 μM glutamate for 10 min, followed by the addition of varying concentrations of Baicalein (0.2-5 μM). Cell viability was determined 24 hr later with a standard MTT assay. (C) PC12 cells were glucose-deprived then were incubates in the absence or presence of Baicalein. Cell viability was determined 24 hr later using the MTT assay. (D) RCG-5 nerve cells were treated with 30 μM iodoacetic acid for 2 hr in the presence or absence of 5-25 μM Baicalein. In some experiments, Baicalein was added 2 hr after the ischemic event. Cell survival (%) was measured after 24 hr by the MTT assay. Baicalein added before (□) or 2 hr after ([…]) ischemia. […] These include trophic factor withdrawal (TFW), excitotoxicity, glucose starvation, and most importantly, in a chemical ischemia model. […] (FIG. 5A). Using a published excitotoxicity assay, Baicalein rescues about 35% of the cells (FIG. 5B).

Assay [2] deals with embolic strokes in rabbits. Put plainly: Rabbit small clot embolic stroke model (RSCEM). The settings on record: for therapeutic window in the RSCEM: time post-embolization. Format: in vivo. An excerpt:
The ability of polyphenol analogs to treat, prevent and/or mitigate one or more symptoms of stroke can also be evaluated in in vivo assays. Such assays are known in the art and find use. One applicable in vivo screening assay is the rabbit clot embolic stroke model, discussed, e.g., in Lapchak, et al., Stroke (2002) 33(9):2279-84 and Lapchak, Exp Neurol. (2007) 205(2):407-13. The rabbit small clot embolic stroke model (RSCEM) and rabbit large clot embolic stroke model (RLCEM) can be used to determine the potential neuroprotective properties and safety profile of test polyphenol analogs after an embolic stroke. Rabbits are embolized by injecting small blood clots (RSCEM) or large blood clots (RLCEM) into the cerebral circulation. Behavioral analysis is conducted 24 hours later, allowing for determination of the effective stroke dose (ES50) or clot amount (milligrams) that produces severe neurological deficits in 50% of rabbits. A drug is considered neuroprotective if it increases the ES50 compared with the vehicle-treated control group.
Behavioral analysis was conducted at 24 hours following treatment, which allowed for the construction of quantal dose-response analysis curves. […] For the superimposed graphs, normal animals are plotted on the y-axis at 0% and abnormal animals are plotted at 100%. […] Moreover, CGA increased the P50 value (the clot dose that produces abnormality in 50% of a treatment group) compared to vehicle control. For a detailed discussion of the methods used to fit the quantal data to a sigmoidal curve, see Zivin and Waud. The pharmacology of chlorogenic acid in the rabbit small clot embolic stroke model (RSCEM) has been published (Lapchak, Exp Neurol. 2007 205(2):407-13). In the manuscript, it is shown that CGA has a therapeutic window of 60 minutes in the RSCEM. FIG. 2 presents the therapeutic window data.

Assay [3] concerns primary mouse cortical neurons. Put plainly: Primary cortical cell glutamate excitotoxicity assay. Format: cell-based. The settings on record: for % protection against glutamate excitotoxicity at 0.1 µM: Mus musculus, Cortical neurone; for % protection against glutamate excitotoxicity at 0.1 µM / Primary Cortical Cell assay-Glutamate (% protection @ 100 nM): 10 μM glutamate, compound 100 nM. As for the experimental part: FIG. 5 illustrates pharmacological effects of Baicalein on cultured cells. (A) Trophic factor withdrawal. Primary cortical neurons are prepared from 18-day-old rat embryos, and cultured at low cell density 1×10^6/35 mm dish, in serum containing medium with Baicalein (10-10,000 nM), and viability assayed 2 days later using a live-dead assay. (B) Excitotoxicity assay was done with E14 mouse primary cortical neuron cultures. After 11 days of culture, cells were exposed to 10 μM glutamate for 10 min, followed by the addition of varying concentrations of Baicalein (0.2-5 μM). Cell viability was determined 24 hr later with a standard MTT assay. (C) PC12 cells were glucose-deprived then were incubates in the absence or presence of Baicalein. Cell viability was determined 24 hr later using the MTT assay. (D) RCG-5 nerve cells were treated with 30 μM iodoacetic acid for 2 hr in the presence or absence of 5-25 μM Baicalein. In some experiments, Baicalein was added 2 hr after the ischemic event. Cell survival (%) was measured after 24 hr by the MTT assay. Baicalein added before (□) or 2 hr after ([…]) ischemia.
Primary cultures of cortical neurons that die due to excitotoxicity were prepared as described previously. Briefly, BALB/c mouse embryo cortices were minced and treated with 0.1% trypsin for 20 min. After centrifugation, the cells are resuspended in 827 Neurobasal medium (Invitrogen) plus 10% fetal calf serum and are dissociated by repeated pipetting through a 1 mL blue Eppendorf pipette tip. Then the cells are plated at 1×10^5 cells per well in 96-well poly-L-lysine and laminin-coated microtiter plates (Becton Dickinson, Bedford, Mass., USA) in 827 Neurobasal plus 10% fetal calf serum and 20% glial growth-conditioned medium. Two days later the medium is aspirated and replaced by serum-free 827 Neurobasal medium plus 10 μg/mL cytosine arabinoside. The cultures are used without media change 11 days after plating and are essentially free of astrocytes. They are exposed to 10 μM glutamate followed by varying concentrations of the compounds. Cell viability is determined 24 h later using the fluorescent live/dead assay. Glial conditioned medium is prepared from confluent rat astrocyte cultures. The cells are washed twice with serum-free medium and incubated for 2 days in serum-free Neurobasal medium to produce the growth conditioned medium.
(1) ≧80% cell survival in mouse HT22 hippocampal cells in the presence of 20 μM iodoacetic acid (IAA) (in vitro ischemia model). See, Maher, et al., Brain Res. 2007, 1173:117-25. (2) ≧35% cell survival in primary mouse cortical neurons in the presence of 10 μM glutamate (in vitro excitotoxicity assay). See, Ishige, et al., Free Radic Biol Med, 2001, 30(4): p. 433-46.

[4] abbreviates: administered 1 hour following embolization.
Setting [5] is: administered 3 hours following embolization.
[6] abbreviates: 50 mg/kg intravenously, 5 minutes following embolization, behavior at 24 hours.

On to `O=c1cc(-c2ccccc2)oc2cc(O)c(O)c(O)c12` [Baicalein, 5,6,7-trihydroxyflavone, reference compound], for which the “survival of low-density cultured cortical neurons” value in assay [1] is reported as “dramatically promotes the survival”. For the same molecule, in assay [2] (100 mg/kg subcutaneously, 60 minutes following embolization), the “P50 value (clot dose that produces abnormality in 50% of a group)” value was found to be 2.15 ± 0.12 mg. Moreover, the improvement of behavior result in assay [2] (setting [4]) was “effective at improving behavior”; in assay [2] (setting [5]), “neither improve behavior”. In assay [2], the “therapeutic window in the RSCEM” value was at least 60 min. Further, in assay [3] (E14 mouse cortical neurons, 10 μM glutamate 10 min, 0.2-5 μM, MTT 24 hr), the “cells rescued in excitotoxicity assay” value was “about 35%”. Also, the % protection against glutamate excitotoxicity at 0.1 µM in assay [3] worked out at 0%.
For `O=C(/C=C/c1ccc(O)c(O)c1)O[C@@H]1C[C@](O)(C(=O)O)C[C@@H](O)[C@H]1O` [Chlorogenic Acid, 1,3,4,5-tetrahydroxy-cyclohexanecarboxylic acid 3-(3,4-dihydroxycinnamate)], the “P50 value (clot dose that produces abnormality in 50% of a group)” value in assay [2] (setting [6]) came out at 3.61 ± 0.52 mg. The improvement of behavior result in assay [2] (setting [4]) was “effective at improving behavior”; in assay [2] (setting [5]), “neither improve behavior”. In addition, in assay [2], the “therapeutic window in the RSCEM” value stood at 60 min. In assay [3], this molecule had a % protection against glutamate excitotoxicity at 0.1 µM of 0%.
Consider `COc1cc(-c2oc3cc(C)c(C)cc3c(=O)c2O)ccc1O` [CMS-069, 3-hydroxy-2-(4-hydroxy-3-methoxyphenyl)-6,7-dimethyl-4H-chromen-4-one], for which, in assay [3], the “Primary Cortical Cell assay-Glutamate (% protection @ 100 nM)” value is 86%.
`O=c1c(O)c(-c2ccc(O)c(O)c2)oc2cc(O)ccc12` [Fisetin, 3,7,3′,4′-Tetrahydroxyflavone, reference compound]: the “P50 value (clot dose that produces abnormality in 50% of a group)” value in assay [2] (setting [6]) is 2.53 ± 0.55 mg. In assay [3], the “Primary Cortical Cell assay-Glutamate (% protection @ 100 nM)” value is given as 0%.
Take `O=c1c(O)c(-c2ccc(O)c(O)c2)oc2c1ccc1ccccc12` [CMS-040, 2-(3,4-dihydroxyphenyl)-3-hydroxy-4H-benzo[h]chromen-4-one]: the % protection against glutamate excitotoxicity at 0.1 µM in assay [3] was determined as 86%.
Still for that read-out and setting: under `COc1cc(-c2oc3cc(C)c(C)cc3c(=O)c2O)ccc1OCc1ccccc1` [CMS-059, 2-(4-(benzyloxy)-3-methoxyphenyl)-3-hydroxy-6,7-dimethyl-4H-chromen-4-one] stands 78%.
In the case of `CCOc1cc(-c2ccc(O)c(O)c2)nc2ccccc12` [CMS-023, 4-ethoxy-2-(3,4-dihydroxyphenyl) quinoline], in assay [3], the “Primary Cortical Cell assay-Glutamate (% protection @ 100 nM)” value was found to be 100%.
The same measure, in the same setting: with `CC(C)Oc1cc(-c2ccc(O)c(O)c2)nc2ccccc12` [CMS-024, 4-isopropoxy-2-(3,4-dihydroxyphenyl) quinoline] the figure was 58%.
